The structures appear in SMILES notation.

For series [1], the system named is 5-hydroxytryptamine-induced constriction. Kind of series: Inhibition of 5-hydroxytryptamine induced bronchoconstriction in the anaesthetised, artificially respired guinea pig (Konzett-Rossler preparation). Particulars: Cavia porcellus, iv, read-out: ID50 against 5-hydroxytryptamine-induced constriction. Type of series: in vivo. Here is the method: (§1) 1. The compounds were examined for their ability to inhibit 5-hydroxytryptamine or histamine induced bronchoconstriction in the anaesthetised, artificially respired guinea pig (Konzett-Rossler preparation). The compounds were administered intravenously.

Series [2] concerns bronchoconstriction induced by an histamine aerosol. Kind of series: Protection of conscious guinea pigs against bronchoconstriction induced by an histamine aerosol (Herxheimer test). Type of series: in vivo, guinea pig. Also on record: key to Aerosol route Activity (class symbol) / Oral route Activity (class symbol): A: active. Particulars: mean of several experiments; for minimal effective dose: Cavia porcellus, read-out: Oral route Activity: dose at which active; for minimal effective dose / Oral route Activity (class symbol): oral route. Here is the method: 2. the compounds were also examined for their ability to protect conscious guinea pigs against bronchoconstriction induced by an histamine aerosol (Herxheimer test). In these experiments the compounds were administered by aerosol or by oral administration. The results are shown in Table B. The results are the mean of several experiments.

Series [3] concerns indomethacin induced gastric damage. Kind of series: Anti-ulcer activity: inhibition of indomethacin induced gastric damage in the rat. The series is classed as in vivo. Particulars: 100 mg/kg orally, 30 minutes prior to 15 mg/kg indomethacin s.c., groups of 7 rats, score scale 1-9. The procedure:
Anti-ulcer activity was assessed by the inhibition of indomethacin induced gastric damage in the rat according to the method of Eleghe (1974) Israeli J. Med. Sci. 10. 1451. Rats were starved overnight given 15 mg/kg indomethacin subcutaneously and sacrificed 4 hours later. Stomachs were reflated with n.saline, cut along the greater curvature pinned out and scored for gastric damage by the following system:
Score 1-3--according to degree of erythema and slight haemorrhage.
Score 4-6--according to degree of mucosal erosion.
Score 7-9--according to depth of gastric damage.
Groups of 7 rats were used for each treatment and the test compound or vehicle were administered 30 minutes prior to giving the indomethacin. Dose of test compound was 100 mg/kg orally and control groups receiving vehicle only were set up simultaneously. Mean values for each treatment were obtained using the above scoring system and the Mann Witney test applied for significance of difference between the values obtained with the treatments.

The subject of series [4] is pentagastrin-stimulated gastric acid secretion. The series is described as follows: Inhibition of pentagastrin-stimulated gastric acid secretion in the anaesthetised, perfused rat stomach preparation (Ghosh and Schild preparation). The series is classed as in vivo. Particulars: i.v. Here is the method: The compounds were examined for their ability to inhibit pentagastrin-stimulated gastric acid secretion in the anaesthetised, perfused rat stomach preparation (Ghosh and Schild preparation). The compounds were administered intra-venously.

The test system of series [5] is platelet aggregation induced by collagen in human platelet rich plasma. Kind of series: Inhibition of collagen-induced platelet aggregation in vitro in human platelet rich plasma. The series is classed as cell-based. Particulars: for inhibition at 100 µM: collagen-induced. An excerpt: The compounds were examined for their ability to inhibit platelet aggregation induced in vitro by collagen in human platelet rich plasma.

The test system of series [6] is heart fibrillation induced by chloroform. The series is described as follows: Anti-arrythmic activity: prevention of heart fibrillation in mice exposed to chloroform. The series is classed as in vivo. Particulars: 100 mg/kg intraperitoneally, group of 3 mice. An excerpt: The compounds were examined for anti-arrythmic activity by determining their ability to prevent heart fibrillation in mice exposed to chloroform.

The next series is described as follows: in vivo. Particulars: mouse. On the set-up: species or system mice. The procedure:
For example, Compound 17 was not toxic in mice at doses up to 300 mg/kg, orally, or at doses up to 100 mg/kg, intraperitoneally, whereas Compound 21 was not toxic at doses up to 900 mg/kg, orally, in mice.

The test system of series [7] is histamine-induced bronchoconstriction. The series is described as follows: Inhibition of histamine induced bronchoconstriction in the anaesthetised, artificially respired guinea pig (Konzett-Rossler preparation). Type of series: in vivo. Particulars: Cavia porcellus, iv, read-out: ID50 against histamine-induced constriction. The procedure: as §1

As for `CCCCCCCC(C)(O)CCN1C(=O)N(C)C(=O)C1CCCCCCC(=O)OC` (centres unmarked) [Compound 1, 1-(3'-hydroxy-3'-methyl-n-decyl)-3-methyl-5-(6"-methoxycarbonyl-n-hexyl)hydantoin], the ED50 in series [1] was determined as 4.5 µg/kg. Also, the “Aerosol route Activity (class symbol)” value in series [2] was “A”.
`CCCCCCC(C)(O)CCN1C(=O)N(CC)C(=O)C1CCCCCCC(=O)OCC` (centres unmarked) [Compound 2, 1-(3'-hydroxy-3'-methyl-n-nonyl)-3-ethyl-5-(6"-ethoxycarbonyl-n-hexyl)hydantoin]: the ED50 in series [1] amounted to 6.8 µg/kg. The “Aerosol route Activity (class symbol)” value in series [2] is listed as “A”.
As for `CCCCCCC(C)(O)CCN1C(=O)N(C)C(=O)C1CCCCCCC(=O)OCC` (centres unmarked) [Compound 3], in series [1], the ED50 was found to be 0.4 µg/kg. Also, in series [2], the minimal effective dose was determined as 250 µg/kg, the “Aerosol route Activity (class symbol)” value is given as “A” and the “Oral route Activity (class symbol)” value is recorded as “A”.
As to `COC(=O)CCCCCCC1C(=O)N(C)C(=O)N1CCC1(O)CCCCC1` (centres unmarked) [Compound 4], in series [1], the ED50 is 220 µg/kg.
As for `CCCCCCC(C)(O)CCN1C(=O)N(C)C(=O)C1CCCCCCC(=O)OC` (centres unmarked) [Compound 6], the ED50 in series [1] was 1.5 µg/kg.
As for `CCCCC(C)C(C)(O)CCN1C(=O)N(C)C(=O)C1CCCCCCC(=O)OC` (centres unmarked) [Compound 7], the ED50 in series [1] was 3.3 µg/kg.
Consider `CCCCCCC(C)(O)CCN1C(=O)N(CC)C(=O)C1CCCCCCC(=O)O` (centres unmarked) [Compound 16, 1-(3'-hydroxy-3'-methyl-n-nonyl)-3-ethyl-5-(6"-carboxy-n-hexyl)hydantoin], for which, in series [1], the ED50 amounted to 5.8 µg/kg. Further, the “Aerosol route Activity (class symbol)” value in series [2] is “A”.
Regarding `CCCCCCCC(C)(O)CCN1C(=O)N(C)C(=O)C1CCCCCCC(=O)O` (centres unmarked) [Compound 17], the ED50 in series [1] was 8.5 µg/kg. Also, the “Aerosol route Activity (class symbol)” value in series [2] is recorded as “A”. For the same molecule, the “Test Mean Score + S.E. of Mean (gastric damage score)” value (shortened to “Test Mean Score + S.E. of Mean”) in series [3] was 0.43 ± 0.30. In addition, in series [4], the “inhibited gastric acid secretion over the dose range” value lay within 5000 to 10000 µg/kg. The same molecule registered an inhibition at 100 µM in series [5] of 34%. Besides, in series [6], the “prevention of fibrillation induced by chloroform” value was “prevented fibrillation”. Also, the NOAEL was no less than 100000 µg/kg in “in vivo” (ip) and no less than 300000 µg/kg in the series “in vivo” (po).
With `CCC(C)(O)CCN1C(=O)N(C)C(=O)C1CCCCCCC(=O)O` (centres unmarked) [Compound 18], 100 µM produced 100% inhibition in series [5]. In series [5] (in vitro, read-out: IC50 against collagen-induced aggregation), the IC50 was 7 µM.
In the case of `CN1C(=O)C(CCCCCCC(=O)O)N(CCC2(O)CCCCC2)C1=O` (centres unmarked) [Compound 19], in series [1], the ED50 is greater than 220 µg/kg.
On to `CCCCCCC(C)(O)CCN1C(=O)N(C)C(=O)C1CCCCCCC(=O)O` (centres unmarked) [Compound 21, 1-(3'-hydroxy-3'-methyl-n-nonyl)-3-methyl-5-(6"-carboxy-n-hexyl)hydantoin], for which the ED50 in series [1] was found to be 0.6 µg/kg. Besides, in series [7], the ED50 is 0.6 µg/kg. In series [2], the minimal effective dose was 250 µg/kg, the “Aerosol route Activity (class symbol)” value is “A” and the “Oral route Activity (class symbol)” value is given as “A”. In addition, in the series “in vivo” (po), the NOAEL was no less than 900000 µg/kg.
In the case of `CCCCC(C)C(C)(O)CCN1C(=O)N(C)C(=O)C1CCCCCCC(=O)O` (centres unmarked) [Compound 22], the ED50 in series [1] came out at 3.2 µg/kg. Further, the “Test Mean Score + S.E. of Mean” value in series [3] is on record as 0.00 ± 0.00.
Take `CN1C(=O)C(CCCCCCC(=O)O)N(CCC(C)(O)c2ccccc2)C1=O` (centres unmarked) [Compound 23]: the ED50 in series [1] was 60 µg/kg.
As for `CCCCCCC(O)CCN1C(=O)N(C)C(=O)C1CCCCCCC(=O)O` (centres unmarked) [Compound 24], the ED50 in series [1] is 6 µg/kg.
In the case of `CCCCCCC(C)(O)CCN1C(=O)N(C(C)(C)C)C(=O)C1CCCCCCC(=O)O` (centres unmarked) [Compound 25], the “Test Mean Score + S.E. of Mean” value in series [3] amounted to 1.14 ± 0.74.
As to `CCCCCCC(C)(O)CCN1C(=S)N(C)C(=O)C1CCCCCCC(=O)OC` (centres unmarked) [Compound 30, 1-(3'-hydroxy-3'-methyl-n-nonyl)-3-methyl-5-(6"-methoxycarbonyl-n-hexyl)-2-thiohydantoin], the “Test Mean Score + S.E. of Mean” value in series [3] was 0.14 ± 0.14.
As to `CCCCCCC(C)(O)CCN1C(=S)N(C)C(=O)C1CCCCCCC(=O)OCC` (centres unmarked) [Compound 31], in series [1], the ED50 amounted to 4.2 µg/kg. For the same molecule, the “Test Mean Score + S.E. of Mean” value in series [3] worked out at 0.00 ± 0.00.
